From ChEMBL document CHEMBL1201862, “PubChem BioAssay data set” (2004)
Active and inactive are the calls of the source.

Experiments:
[1] = EDANS-DABCYL fluorescence interference, concentration series, dose response, artefact control for kallikrein-7 zymogen activator project, biochemical, fluorescence intensity, triplicate (AID 720493)
Kallikrein-7 = Kallikrein-7 (Homo sapiens, UniProt P49862); assay: Fluorescence Intensity-based biochemical primary high throughput dose response assay to identify activators of kallikrein-7 (K7) zymogen.
[2] = inhibitors of clade B AD8 Env fusion, dose response, cell-based, cherry-pick (AID 652062); assay type: functional;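 note: luciferase signal from cell-cell fusion driven by HIV-1 clade B AD8 Env; potency is for inhibitors of fusion seen as a drop in luminescence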
[3] = inhibitors of HIV Env-driven cell fusion, dose response, cherry-pick (AID 652057); assay type: functional, cell-based
[4] = off-target signal loss in HeLa-CEM21 co-culture – HeLa F-luc CTL cells, cherry-picked, counter-screen for HIV-1 Env fusion inhibitor project, dose response (AID 652040); assay type: functional, cell-based;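 note: potency for signal decrease marking cytotoxic or nonspecific inhibition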
[5] = CEM21 cell cytotoxicity, dose response, cytotoxicity control, plate reader, dry powder (AID 687026); assay type: functional, cell-based
[6] = ZM109 Env clade C HIV-1 fusion inhibitors, dose response, HeLa effector, CEM target cells, luciferase, cherry-pick (AID 652058); assay type: functional, cell-based
[7] = CEM21 lymphoblast cell cytotoxicity, dose response, cytotoxicity control for viral fusion inhibitor project, CellTiter-Glo luminescence, cherry-picked (AID 652042); assay type: functional, cell-based;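 note: potency for signal decrease meaning cytotoxicity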
[8] = biological target: T1, Corticotropin-releasing factor receptor 2/Corticotropin-releasing factor-binding protein (Homo sapiens, UniProt P24387+Q13324); assay: activators of CRF receptor 2 with binding protein – uHTS hits, confirmation (AID 602473); assay type: functional; conditions: read-out: EC50_Mean
T1 sequence (Q13324 whole entry): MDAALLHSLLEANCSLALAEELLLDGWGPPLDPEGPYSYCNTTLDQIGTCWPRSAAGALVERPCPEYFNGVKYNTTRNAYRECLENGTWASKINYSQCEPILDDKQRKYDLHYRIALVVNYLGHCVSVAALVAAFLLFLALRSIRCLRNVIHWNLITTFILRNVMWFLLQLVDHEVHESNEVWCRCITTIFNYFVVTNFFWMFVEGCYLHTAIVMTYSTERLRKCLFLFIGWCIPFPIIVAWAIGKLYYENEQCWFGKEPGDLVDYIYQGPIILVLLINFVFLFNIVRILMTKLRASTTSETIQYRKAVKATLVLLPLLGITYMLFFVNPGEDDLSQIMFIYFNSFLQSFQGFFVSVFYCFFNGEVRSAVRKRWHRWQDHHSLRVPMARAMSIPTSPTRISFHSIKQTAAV
T1 sequence (P24387 whole entry): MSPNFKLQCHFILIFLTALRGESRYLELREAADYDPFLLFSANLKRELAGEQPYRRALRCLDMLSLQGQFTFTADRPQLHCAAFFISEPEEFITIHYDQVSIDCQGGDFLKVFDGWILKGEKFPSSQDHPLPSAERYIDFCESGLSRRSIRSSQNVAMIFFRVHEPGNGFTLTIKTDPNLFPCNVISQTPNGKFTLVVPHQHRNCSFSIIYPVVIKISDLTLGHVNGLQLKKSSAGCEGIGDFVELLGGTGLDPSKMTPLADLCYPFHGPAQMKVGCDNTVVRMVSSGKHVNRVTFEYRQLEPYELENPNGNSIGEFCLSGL

[9] = HEK293T cell cytotoxicity, dose response, cytotoxicity control for HIV Vif inhibitor project, cherry-picks (AID 652208); assay type: functional, cell-based
[10] = biological target: ADP-ribosylation factor GTPase-activating protein 1 (Rattus norvegicus, UniProt Q62848); assay: Fluorescence polarization-based biochemical high throughput dose response screening assay to identify inhibitors of ADP-ribosylation factor GTPase activating protein 1 (ARFGAP1).; assay type: functional
[11] = biological target: Arf-GAP with SH3 domain, ANK repeat and PH domain-containing protein 1 (Homo sapiens, UniProt Q9ULH1); assay type: functional;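 note: biochemical fluorescence polarization dose–response screen measuring inhibition of ASAP1; ASAP1 GAP domain stimulating GTP hydrolysis by truncated human ARF1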
[12] = T. cruzi growth inhibition in host cells, dose response, cell-based, plate reader, dry powder, set 2 (AID 652275); assay type: functional
Protein Wnt-3a = Protein Wnt-3a (Mus musculus, UniProt P27467); assay: SAR analysis of small molecule antagonists of Gli-SUFU in a Wnt3a luminescent reporter assay.; assay type: functional
[13] = A Cell-Based Confirmatory Screen for Compounds that Inhibit VEEV, TC-83 (7).; assay type: functional
[14] = A Cell-Based Confirmatory Screen for Compounds that Inhibit VEEV, TC-83 (8).; assay type: functional
[15] = MITF Orthogonal Assay: SK-MEL-5 CTG Assay Measured in Cell-Based System Using Plate Reader - 2084-02_Inhibitor_Dose_DryPowder_Activity_Set7.; assay type: functional
[16] = TRPM1 promoter luciferase reporter signal decrease, dose response, MITF inhibitor project, cell-based, SK-MEL-5, dry powder, set 8 (AID 624430); assay type: functional
[17] = MITF: Counter assay: A375 proliferation Measured in Cell-Based System Using Plate Reader - 2084-03_Inhibitor_Dose_DryPowder_Activity_Set8.; assay type: functional; conditions: A-375
[18] = A549 cell cytotoxicity, dose response, cytotoxicity control, CellTiter-Glo luminescence, dry powder, set 3 (AID 743146); assay type: functional, cell-based
[19] = HEK293 cell cytotoxicity, dose response, cytotoxicity control, cherry-picks, set 5 (AID 1053117); assay type: functional, cell-based

Protein Wnt-3a, sequence (P27467 whole entry): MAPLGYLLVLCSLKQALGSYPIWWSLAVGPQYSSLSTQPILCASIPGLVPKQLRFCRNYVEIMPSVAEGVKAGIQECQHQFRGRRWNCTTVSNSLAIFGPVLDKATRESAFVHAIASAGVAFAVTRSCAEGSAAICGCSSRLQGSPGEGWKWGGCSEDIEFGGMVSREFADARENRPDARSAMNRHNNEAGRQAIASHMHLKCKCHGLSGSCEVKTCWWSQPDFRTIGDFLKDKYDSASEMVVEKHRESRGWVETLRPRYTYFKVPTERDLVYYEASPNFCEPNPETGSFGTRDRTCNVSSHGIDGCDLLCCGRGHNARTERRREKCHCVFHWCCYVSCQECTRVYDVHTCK
Kallikrein-7, sequence (P49862 whole entry, the tested form may be a part): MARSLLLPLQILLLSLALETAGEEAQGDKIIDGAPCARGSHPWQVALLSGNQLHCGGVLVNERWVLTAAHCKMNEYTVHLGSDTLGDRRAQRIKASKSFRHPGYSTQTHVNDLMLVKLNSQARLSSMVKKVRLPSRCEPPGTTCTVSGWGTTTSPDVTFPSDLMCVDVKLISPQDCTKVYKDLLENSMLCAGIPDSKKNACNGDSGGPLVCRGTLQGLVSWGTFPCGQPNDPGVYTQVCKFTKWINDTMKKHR
ADP-ribosylation factor GTPase-activating protein 1, sequence (Q62848 whole entry, the tested form may be a part): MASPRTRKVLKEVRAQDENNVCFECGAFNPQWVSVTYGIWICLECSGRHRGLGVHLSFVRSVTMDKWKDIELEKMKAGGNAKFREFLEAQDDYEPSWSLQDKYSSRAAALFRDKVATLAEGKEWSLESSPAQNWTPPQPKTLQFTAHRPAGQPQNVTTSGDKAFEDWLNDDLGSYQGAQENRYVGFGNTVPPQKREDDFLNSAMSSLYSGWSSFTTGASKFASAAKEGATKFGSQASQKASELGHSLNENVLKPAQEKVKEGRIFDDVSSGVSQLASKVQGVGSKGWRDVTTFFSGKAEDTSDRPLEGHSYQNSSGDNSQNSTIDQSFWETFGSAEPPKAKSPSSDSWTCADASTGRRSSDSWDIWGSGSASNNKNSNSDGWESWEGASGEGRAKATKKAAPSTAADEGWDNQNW
Arf-GAP with SH3 domain, ANK repeat and PH domain-containing protein 1, sequence (Q9ULH1 whole entry, the tested form may be a part): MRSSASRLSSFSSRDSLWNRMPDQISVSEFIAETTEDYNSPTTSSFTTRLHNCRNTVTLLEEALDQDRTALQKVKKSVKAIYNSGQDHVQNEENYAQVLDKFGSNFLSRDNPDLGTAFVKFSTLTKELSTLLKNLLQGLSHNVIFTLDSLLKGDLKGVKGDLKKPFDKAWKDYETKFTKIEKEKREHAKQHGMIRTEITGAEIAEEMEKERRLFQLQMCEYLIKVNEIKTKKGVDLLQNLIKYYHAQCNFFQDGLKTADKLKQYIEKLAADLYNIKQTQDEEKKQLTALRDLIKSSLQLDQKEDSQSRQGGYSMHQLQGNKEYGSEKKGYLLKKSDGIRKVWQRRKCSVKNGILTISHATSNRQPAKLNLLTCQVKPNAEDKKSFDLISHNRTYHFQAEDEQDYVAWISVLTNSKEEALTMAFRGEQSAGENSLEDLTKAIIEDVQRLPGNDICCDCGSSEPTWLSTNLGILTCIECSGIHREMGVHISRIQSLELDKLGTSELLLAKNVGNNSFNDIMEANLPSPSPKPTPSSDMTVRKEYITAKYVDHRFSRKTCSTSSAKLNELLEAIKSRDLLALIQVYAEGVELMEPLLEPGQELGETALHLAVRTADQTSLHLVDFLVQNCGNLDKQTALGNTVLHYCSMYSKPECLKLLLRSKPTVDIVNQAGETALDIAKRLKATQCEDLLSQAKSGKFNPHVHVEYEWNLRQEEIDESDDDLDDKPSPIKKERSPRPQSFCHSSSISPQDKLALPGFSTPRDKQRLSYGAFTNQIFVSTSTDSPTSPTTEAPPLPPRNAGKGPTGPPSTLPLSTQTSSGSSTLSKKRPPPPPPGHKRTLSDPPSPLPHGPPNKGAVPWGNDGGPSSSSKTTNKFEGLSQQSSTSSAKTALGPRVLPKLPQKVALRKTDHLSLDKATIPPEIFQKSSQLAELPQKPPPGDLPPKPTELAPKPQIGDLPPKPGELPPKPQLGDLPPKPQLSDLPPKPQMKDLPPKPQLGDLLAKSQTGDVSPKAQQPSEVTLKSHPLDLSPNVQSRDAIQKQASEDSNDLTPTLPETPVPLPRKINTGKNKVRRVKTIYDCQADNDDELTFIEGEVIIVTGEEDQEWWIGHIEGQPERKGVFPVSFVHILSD

COc1cc2c(cc1OC)C(=O)CC(C)S2 (stereo unspecified)
EC50 [1]: > 7.73 µM (active) | EC50 (Kallikrein-7): 8.28 µM (active)

CCCn1nc(C(=O)Nc2ccc3nc(N4CCOCC4)sc3c2)ccc1=O
AC50 [2]: 10.3 µM (active) | AC50 [3]: 1.85 µM (active) | AC50 [4]: > 70 µM (inactive) | AC50 [5]: > 70 µM (inactive) | AC50 [6]: 1.04 µM (active) | AC50 [7]: 67.1 µM (active)

O=C(NCc1ccccc1C(F)(F)F)c1cccc2c1C(=O)c1ccc(N3CCCCC3)cc1S2(=O)=O
EC50 [8]: 5.37 µM (active) | AC50 [9]: > 52 µM (inactive)

COc1ccccc1C=NNC(=O)NN=Cc1ccccc1OC
IC50 [10]: 25.6 µM (inactive) | IC50 [11]: 23.2 µM (inactive)

CC(C)(C)[S@@+]([O-])N1Cc2cc(C(=O)NCc3ccc4c(c3)OCO4)nc(-c3cccc(-c4cccnc4)c3)c2[C@H]1CCO
AC50 [12]: 1.67 µM (active)

O=C(Nc1cc(N2CCCCC2)ncn1)c1ccccc1C(F)(F)F
IC50 (Protein Wnt-3a): 6.48 µM (active)

CN1CCN(C)/C(=N/c2ccc([N+](=O)[O-])cc2C(=O)Nc2ccccc2)C1
IC50 [13]: < 40 nM (active) | IC50 [14]: < 73 nM (active)

CC(C)N1CCN(C2=C(Nc3cccc(Cl)c3)C(=O)c3ccccc3C2=O)CC1
AC50 [15]: 7.16 µM (active) | AC50 [16]: 2.47 µM (active) | AC50 [17]: 30.1 µM (active)

O=C(CCNC(=O)c1ccc(Cl)cc1)N[C@H]1CCCc2ccccc21
AC50 [18]: > 52 µM (inactive)

O=S(=O)(c1cccc(F)c1)N1CC[C@@H]2[C@H]1c1cc(-c3cccc(F)c3)ccc1N[C@@H]2CO
AC50 [19]: 33.9 µM (active)
